# Legend:
# Test in all cases: relative viability (nuclei count vs DMSO), 5 days (fraction); higher = more cells survive
# [1] = test system: NCI-H1993
# Summary of the method: (§1)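 Lung cancer cell lines, seeded in 1536-well plates, were treated the following day by pin tool with a single drug or with five library-drug doses (not always all listed) in √10 steps on top of a fixed anchor-drug dose. Cells were fixed and nuclei stained in one step after 5 days, and nuclei were counted. Relative viability is the nuclei count for treated wells divided by that for vehicle wells, reported as medians of duplicate plates.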
# [2] = test system: HARA
# Summary of the method: as §1
# [3] = test system: COR-L 105
# Summary of the method: as §1
# [4] = test system: NCI-H2087
# Summary of the method: as §1
# [5] = test system: LU99A
# Summary of the method: as §1
# [6] = test system: HOP-62
# Summary of the method: as §1
# [7] = test system: NCI-H1395
# Summary of the method: as §1
# [8] = test system: RERF-LC-KJ
# Summary of the method: as §1
# [9] = test system: SW 900
# Summary of the method: as §1
# [10] = test system: NCI-H2126
# Summary of the method: as §1
# [11] = test system: EMC-BAC-2
# Summary of the method: as §1
# [12] = test system: LC-2-ad
# Summary of the method: as §1
# [13] = test system: NCI-H650
# Summary of the method: as §1
# [14] = test system: SK-MES-1
# Summary of the method: as §1
# [15] = test system: LOU-NH91
# Summary of the method: as §1
# [16] = test system: 201T
# Summary of the method: as §1
# [17] = test system: LXF-289
# Summary of the method: as §1
# [18] = test system: HCC-78
# Summary of the method: as §1
# [19] = test system: NCI-H2170
# Summary of the method: as §1
# [20] = test system: H3255
# Summary of the method: as §1
# [21] = test system: BEN
# Summary of the method: as §1
# [22] = test system: UMC-11
# Summary of the method: as §1
smiles,measurement,setting,value
CN1CCN(CCOc2cc(OC3CCOCC3)c3c(Nc4c(Cl)ccc5c4OCO5)ncnc3c2)CC1 [Saracatinib] + O=C(c1cc(Cc2n[nH]c(=O)c3ccccc23)ccc1F)N1CCN(C(=O)C2CC2)CC1 [Olaparib] (partner 8 µM),relative viability,[1]; first compound 0.02 µM,1.03
same,relative viability,[1]; first compound 0.2 µM,1.02
same,relative viability,[1]; first compound 0.6325 µM,1.01
same,relative viability,[1]; first compound 2 µM,0.989
same,relative viability,[2]; first compound 0.02 µM,0.891
same,relative viability,[2]; first compound 0.2 µM,0.631
same,relative viability,[2]; first compound 0.6325 µM,0.878
same,relative viability,[2]; first compound 2 µM,0.311
same,relative viability,[3]; first compound 0.02 µM,0.594
same,relative viability,[3]; first compound 0.2 µM,0.617
same,relative viability,[3]; first compound 0.6325 µM,0.698
same,relative viability,[3]; first compound 2 µM,0.698
same,relative viability,[4]; first compound 0.02 µM,0.485
same,relative viability,[4]; first compound 0.2 µM,0.449
same,relative viability,[4]; first compound 0.6325 µM,0.552
same,relative viability,[4]; first compound 2 µM,0.515
same,relative viability,[5]; first compound 0.02 µM,0.278
same,relative viability,[5]; first compound 0.2 µM,0.194
same,relative viability,[5]; first compound 0.6325 µM,0.282
same,relative viability,[5]; first compound 2 µM,0.256
same,relative viability,[6]; first compound 0.02 µM,0.38
same,relative viability,[6]; first compound 0.2 µM,0.417
same,relative viability,[6]; first compound 0.6325 µM,0.204
same,relative viability,[6]; first compound 2 µM,0.39
same,relative viability,[7]; first compound 0.02 µM,0.497
same,relative viability,[7]; first compound 0.2 µM,0.488
same,relative viability,[7]; first compound 0.6325 µM,0.409
same,relative viability,[7]; first compound 2 µM,0.436
same,relative viability,[8]; first compound 0.02 µM,1.09
same,relative viability,[8]; first compound 0.2 µM,0.841
same,relative viability,[8]; first compound 0.6325 µM,0.9
same,relative viability,[8]; first compound 2 µM,0.977
same,relative viability,[9]; first compound 0.02 µM,0.831
same,relative viability,[9]; first compound 0.2 µM,0.753
same,relative viability,[9]; first compound 0.6325 µM,0.784
same,relative viability,[9]; first compound 2 µM,0.643
same,relative viability,[10]; first compound 0.02 µM,0.886
same,relative viability,[10]; first compound 0.2 µM,0.924
same,relative viability,[10]; first compound 0.6325 µM,0.923
same,relative viability,[10]; first compound 2 µM,0.763
same,relative viability,[11]; first compound 0.02 µM,0.489
same,relative viability,[11]; first compound 0.2 µM,0.418
same,relative viability,[11]; first compound 0.6325 µM,0.562
same,relative viability,[11]; first compound 2 µM,0.474
same,relative viability,[12]; first compound 0.02 µM,0.773
same,relative viability,[12]; first compound 0.2 µM,0.636
same,relative viability,[12]; first compound 0.6325 µM,0.723
same,relative viability,[12]; first compound 2 µM,0.705
same,relative viability,[13]; first compound 0.02 µM,0.353
same,relative viability,[13]; first compound 0.2 µM,0.442
same,relative viability,[13]; first compound 0.6325 µM,0.429
same,relative viability,[13]; first compound 2 µM,0.432
same,relative viability,[14]; first compound 0.02 µM,0.703
same,relative viability,[14]; first compound 0.2 µM,0.69
same,relative viability,[14]; first compound 0.6325 µM,0.49
same,relative viability,[14]; first compound 2 µM,0.299
same,relative viability,[15]; first compound 0.02 µM,0.862
same,relative viability,[15]; first compound 0.2 µM,0.711
same,relative viability,[15]; first compound 0.6325 µM,0.73
same,relative viability,[15]; first compound 2 µM,0.613
same,relative viability,[16]; first compound 0.02 µM,0.913
same,relative viability,[16]; first compound 0.2 µM,0.595
same,relative viability,[16]; first compound 0.6325 µM,0.775
same,relative viability,[16]; first compound 2 µM,0.665
same,relative viability,[17]; first compound 0.02 µM,1.07
same,relative viability,[17]; first compound 0.2 µM,0.916
same,relative viability,[17]; first compound 0.6325 µM,1.09
same,relative viability,[17]; first compound 2 µM,1.04
same,relative viability,[18]; first compound 0.02 µM,0.891
same,relative viability,[18]; first compound 0.6325 µM,0.99
same,relative viability,[18]; first compound 2 µM,0.673
same,relative viability,[19]; first compound 0.02 µM,0.597
same,relative viability,[19]; first compound 0.2 µM,0.539
same,relative viability,[19]; first compound 0.6325 µM,0.558
same,relative viability,[19]; first compound 2 µM,0.524
same,relative viability,[20]; first compound 0.02 µM,0.623
same,relative viability,[20]; first compound 0.2 µM,0.496
same,relative viability,[20]; first compound 0.6325 µM,0.593
same,relative viability,[20]; first compound 2 µM,0.301
same,relative viability,[21]; first compound 0.02 µM,1.15
same,relative viability,[21]; first compound 0.2 µM,0.922
same,relative viability,[21]; first compound 0.6325 µM,1.15
same,relative viability,[21]; first compound 2 µM,0.794
same,relative viability,[22]; first compound 0.02 µM,0.42
same,relative viability,[22]; first compound 0.2 µM,0.306
same,relative viability,[22]; first compound 0.6325 µM,0.362
same,relative viability,[22]; first compound 2 µM,0.351
Cc1cn(-c2cc(NC(=O)c3ccc(C)c(Nc4nccc(-c5cccnc5)n4)c3)cc(C(F)(F)F)c2)cn1 [Nilotinib] + CC(=O)c1c(C)c2cnc(Nc3ccc(N4CCNCC4)cn3)nc2n(C2CCCC2)c1=O [Palbociclib] (partner 0.5 µM),relative viability,[1]; first compound 0.001 µM,0.688
same,relative viability,[1]; first compound 0.003162 µM,0.705
same,relative viability,[1]; first compound 0.01 µM,0.762
same,relative viability,[1]; first compound 0.03162 µM,0.624
same,relative viability,[1]; first compound 0.1 µM,0.851
same,relative viability,[2]; first compound 0.001 µM,0.287
same,relative viability,[2]; first compound 0.003162 µM,0.219
same,relative viability,[2]; first compound 0.01 µM,0.246
same,relative viability,[2]; first compound 0.03162 µM,0.251
same,relative viability,[2]; first compound 0.1 µM,0.225
same,relative viability,[3]; first compound 0.001 µM,0.396
same,relative viability,[3]; first compound 0.003162 µM,0.413
same,relative viability,[3]; first compound 0.01 µM,0.28
same,relative viability,[3]; first compound 0.03162 µM,0.399
same,relative viability,[3]; first compound 0.1 µM,0.391
same,relative viability,[4]; first compound 0.001 µM,0.219
same,relative viability,[4]; first compound 0.003162 µM,0.204
same,relative viability,[4]; first compound 0.01 µM,0.213
same,relative viability,[4]; first compound 0.03162 µM,0.187
same,relative viability,[4]; first compound 0.1 µM,0.201
same,relative viability,[5]; first compound 0.001 µM,0.408
same,relative viability,[5]; first compound 0.003162 µM,0.377
same,relative viability,[5]; first compound 0.01 µM,0.402
same,relative viability,[5]; first compound 0.03162 µM,0.44
same,relative viability,[5]; first compound 0.1 µM,0.314
same,relative viability,[6]; first compound 0.003162 µM,0.425
same,relative viability,[6]; first compound 0.01 µM,0.439
same,relative viability,[7]; first compound 0.001 µM,0.636
same,relative viability,[7]; first compound 0.01 µM,0.692
same,relative viability,[7]; first compound 0.03162 µM,0.612
same,relative viability,[7]; first compound 0.1 µM,0.599
same,relative viability,[8]; first compound 0.001 µM,0.965
same,relative viability,[8]; first compound 0.003162 µM,1.11
same,relative viability,[8]; first compound 0.01 µM,1.21
same,relative viability,[8]; first compound 0.03162 µM,0.896
same,relative viability,[8]; first compound 0.1 µM,1.03
same,relative viability,[9]; first compound 0.003162 µM,0.47
same,relative viability,[9]; first compound 0.01 µM,0.524
same,relative viability,[9]; first compound 0.03162 µM,0.455
same,relative viability,[9]; first compound 0.1 µM,0.476
same,relative viability,[10]; first compound 0.001 µM,0.337
same,relative viability,[10]; first compound 0.003162 µM,0.333
same,relative viability,[10]; first compound 0.01 µM,0.382
same,relative viability,[10]; first compound 0.03162 µM,0.321
same,relative viability,[10]; first compound 0.1 µM,0.346
same,relative viability,[11]; first compound 0.001 µM,0.477
same,relative viability,[11]; first compound 0.003162 µM,0.47
same,relative viability,[11]; first compound 0.01 µM,0.481
same,relative viability,[11]; first compound 0.03162 µM,0.487
same,relative viability,[11]; first compound 0.1 µM,0.526
same,relative viability,[12]; first compound 0.001 µM,0.535
same,relative viability,[12]; first compound 0.003162 µM,0.605
same,relative viability,[12]; first compound 0.01 µM,0.561
same,relative viability,[12]; first compound 0.03162 µM,0.466
same,relative viability,[12]; first compound 0.1 µM,0.502
same,relative viability,[13]; first compound 0.001 µM,0.335
same,relative viability,[13]; first compound 0.01 µM,0.336
same,relative viability,[13]; first compound 0.03162 µM,0.305
same,relative viability,[13]; first compound 0.1 µM,0.333
same,relative viability,[14]; first compound 0.001 µM,0.347
same,relative viability,[14]; first compound 0.003162 µM,0.298
same,relative viability,[14]; first compound 0.01 µM,0.313
same,relative viability,[14]; first compound 0.03162 µM,0.377
same,relative viability,[14]; first compound 0.1 µM,0.32
same,relative viability,[15]; first compound 0.001 µM,0.51
same,relative viability,[15]; first compound 0.003162 µM,0.543
same,relative viability,[15]; first compound 0.01 µM,0.48
same,relative viability,[15]; first compound 0.03162 µM,0.535
same,relative viability,[15]; first compound 0.1 µM,0.586
same,relative viability,[16]; first compound 0.001 µM,0.326
same,relative viability,[16]; first compound 0.003162 µM,0.371
same,relative viability,[16]; first compound 0.01 µM,0.363
same,relative viability,[16]; first compound 0.03162 µM,0.363
same,relative viability,[16]; first compound 0.1 µM,0.351
same,relative viability,[17]; first compound 0.001 µM,0.673
same,relative viability,[17]; first compound 0.003162 µM,0.771
same,relative viability,[17]; first compound 0.01 µM,0.666
same,relative viability,[17]; first compound 0.03162 µM,0.607
same,relative viability,[17]; first compound 0.1 µM,0.577
same,relative viability,[18]; first compound 0.001 µM,0.476
same,relative viability,[18]; first compound 0.003162 µM,0.509
same,relative viability,[18]; first compound 0.01 µM,0.532
same,relative viability,[18]; first compound 0.03162 µM,0.468
same,relative viability,[18]; first compound 0.1 µM,0.524
same,relative viability,[19]; first compound 0.001 µM,0.373
same,relative viability,[19]; first compound 0.003162 µM,0.474
same,relative viability,[19]; first compound 0.01 µM,0.436
same,relative viability,[19]; first compound 0.03162 µM,0.379
same,relative viability,[19]; first compound 0.1 µM,0.44
same,relative viability,[20]; first compound 0.001 µM,0.317
same,relative viability,[20]; first compound 0.003162 µM,0.286
same,relative viability,[20]; first compound 0.01 µM,0.313
same,relative viability,[20]; first compound 0.03162 µM,0.308
same,relative viability,[20]; first compound 0.1 µM,0.287
same,relative viability,[21]; first compound 0.001 µM,0.484
same,relative viability,[21]; first compound 0.003162 µM,0.489
same,relative viability,[21]; first compound 0.01 µM,0.465
same,relative viability,[21]; first compound 0.03162 µM,0.548
same,relative viability,[21]; first compound 0.1 µM,0.503
same,relative viability,[22]; first compound 0.001 µM,0.299
same,relative viability,[22]; first compound 0.003162 µM,0.296
same,relative viability,[22]; first compound 0.01 µM,0.299
same,relative viability,[22]; first compound 0.03162 µM,0.374
same,relative viability,[22]; first compound 0.1 µM,0.313

# From the supplement of paper PMC10307832
